Here are results for three compounds from paper doi:10.1101/2024.11.09.622828v1 (biorxiv, 2024).

In experiment [1] the target is LDH-A (lactate dehydrogenase-A). The experiment can be described thus: NADH oxidation at […] nm, crude goat liver enzyme. The class given is biochemical, Capra hircus. The following applies: 1.8 mM pyruvate, 5 mM NADH, 50 mM Tris pH 7.6.
The target in experiment [2] is T1, Porcine pancreatic α-amylase (PPA) (Sus scrofa, UniProt P00690).
T1 sequence (P00690 16-511): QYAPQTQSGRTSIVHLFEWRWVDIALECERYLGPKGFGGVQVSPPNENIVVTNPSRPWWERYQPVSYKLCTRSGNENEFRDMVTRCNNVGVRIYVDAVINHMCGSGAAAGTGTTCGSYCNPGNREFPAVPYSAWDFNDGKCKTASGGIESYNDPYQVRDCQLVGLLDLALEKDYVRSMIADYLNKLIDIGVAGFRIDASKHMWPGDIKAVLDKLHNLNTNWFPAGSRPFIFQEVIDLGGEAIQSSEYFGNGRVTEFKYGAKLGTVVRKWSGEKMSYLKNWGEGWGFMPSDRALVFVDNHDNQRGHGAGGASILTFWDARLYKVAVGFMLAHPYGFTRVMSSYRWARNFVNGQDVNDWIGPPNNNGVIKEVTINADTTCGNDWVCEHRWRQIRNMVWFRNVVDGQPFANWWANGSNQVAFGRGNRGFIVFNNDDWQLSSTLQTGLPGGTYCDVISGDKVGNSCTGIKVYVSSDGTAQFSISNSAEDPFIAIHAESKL
The experiment can be described thus: DNS reducing sugar assay, […] nm. Format: biochemical.

As a reminder, the IC50 is the midpoint of a concentration-inhibition curve. Higher therefore signals lower potency. Compound `O=c1c(O)c(-c2ccc(O)c(O)c2)oc2cc(O)cc(O)c12` [Q, Quercetin] showed an IC50 in experiment [1] of 4.16 µM. For the compound `O=c1c(O)c(-c2cc(O)c(O)c(O)c2)oc2cc(O)cc(O)c12` [M, Myricetin], the 50% inhibitory concentration (IC50) in experiment [2] was 24 µM. Take `O=C1C[C@@H](c2ccc(O)c(O)c2)Oc2cc(O)cc(O)c21` [E, Eriodictyol]: the IC50 in experiment [2] came to 22 µM.
